According to paper PMC8776995 (Frontiers in Chemistry, 2022):
Several values for one entry are separate records, joined by “and”; a condition that tells them apart may be missing. Identical values can stand only once.

Experiments:
PC-9 xenograft = assay: In vivo antitumor activity, PC-9 xenograft in NSG mice; set-up: species or system mouse; details: Day19, individual animals
Description: The mouse body mass was recorded as well.

wild-type EGFR = wild-type EGFR (Homo sapiens, UniProt P00533); assay: EGFR kinase assay (ELISA); details: for A450: raw ELISA absorbance
Sequence of wild-type EGFR (P00533 25-1210): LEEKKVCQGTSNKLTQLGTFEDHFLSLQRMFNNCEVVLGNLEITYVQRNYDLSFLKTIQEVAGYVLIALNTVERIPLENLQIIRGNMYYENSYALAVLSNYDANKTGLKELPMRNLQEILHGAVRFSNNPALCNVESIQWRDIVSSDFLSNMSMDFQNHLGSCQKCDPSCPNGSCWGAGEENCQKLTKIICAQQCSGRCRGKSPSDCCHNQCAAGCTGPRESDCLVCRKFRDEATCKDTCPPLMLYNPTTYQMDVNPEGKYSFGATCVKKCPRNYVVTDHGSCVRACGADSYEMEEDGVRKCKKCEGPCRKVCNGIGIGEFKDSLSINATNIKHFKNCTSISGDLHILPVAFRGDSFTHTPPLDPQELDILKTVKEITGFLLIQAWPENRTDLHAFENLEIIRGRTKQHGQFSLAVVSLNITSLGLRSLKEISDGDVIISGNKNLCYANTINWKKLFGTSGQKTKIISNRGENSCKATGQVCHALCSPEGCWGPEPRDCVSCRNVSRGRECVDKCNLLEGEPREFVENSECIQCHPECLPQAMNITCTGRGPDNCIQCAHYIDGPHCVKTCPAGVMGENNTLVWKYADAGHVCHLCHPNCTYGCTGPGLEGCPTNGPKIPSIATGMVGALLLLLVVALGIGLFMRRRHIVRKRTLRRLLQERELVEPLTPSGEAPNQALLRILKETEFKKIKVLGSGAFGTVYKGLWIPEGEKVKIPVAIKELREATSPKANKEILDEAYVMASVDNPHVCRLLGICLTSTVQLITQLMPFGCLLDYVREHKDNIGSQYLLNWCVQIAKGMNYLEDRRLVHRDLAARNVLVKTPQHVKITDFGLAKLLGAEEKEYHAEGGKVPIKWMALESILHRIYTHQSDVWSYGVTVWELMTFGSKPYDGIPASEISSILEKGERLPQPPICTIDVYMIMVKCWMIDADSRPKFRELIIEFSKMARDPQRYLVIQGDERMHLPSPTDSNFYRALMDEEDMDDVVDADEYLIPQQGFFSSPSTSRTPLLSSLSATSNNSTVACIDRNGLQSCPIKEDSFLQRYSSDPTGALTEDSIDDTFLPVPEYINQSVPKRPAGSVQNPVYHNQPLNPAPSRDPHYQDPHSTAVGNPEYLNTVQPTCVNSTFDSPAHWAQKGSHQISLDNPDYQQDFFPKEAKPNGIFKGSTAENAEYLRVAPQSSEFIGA

[1] = system: AKT phosphorylation (S473) in H460 cells; assay: Western blot, p-AKT/AKT in H460; details: H460, 10 uM
Description: (§1) We also performed western blot analysis to evaluate the impact of e4 and e12 on EGFR signaling in PC-9 and H460 cells.
(§2) H460 cells were seeded in six-well plates with serum-free medium overnight, and then treated complete medium containing 0.1% DMSO, various concentrations (0.1, 1 and 10 μM) of either compound e4 or e12 for 2 h, respectively. […] Then the H460 cells were treated with complete medium containing EGF (10 ng/ml) for 5 min. Then the cells were harvested and washed with PBS, centrifuged, resuspended in 100–200 μl of RIPA lysis buffer containing Protease and Phosphatase Inhibitor Cocktail (1X), and then centrifuged for 5 min at 12,000 rpm at 4°C. The supernatant was used for protein analysis. […] Then the membrane was washed 5 min (X3) and incubated at 1:3,000 dilution of anti-rabbit secondary antibodies or 1:1,000 dilution of anti-mouse secondary antibodies for 1 h at RT. After washing with TBST 5 min (X3), protein bands were developed by chemiluminescence. The protein levels were quantified by the gray values of the bands in the resulting images by ImageJ, and the control group was used as the standard. […] The PC-9 cells were harvested and analyzed as above.

[2] = system: AKT phosphorylation (S473) in PC-9 cells; assay: Western blot, p-AKT/AKT in PC-9; details: PC-9, 10 uM
Description: as §1, §2

[3] = system: EGFR phosphorylation (Tyr1068) in H460 cells; assay: Western blot, p-EGFR/EGFR in H460; details: H460, 10 uM
Description: as §1, §2

[4] = system: EGFR phosphorylation (Tyr1068) in PC-9 cells; assay: Western blot, p-EGFR/EGFR in PC-9; details: PC-9, 10 uM
Description: as §1, §2

H460 cells = assay: CCK-8 antiproliferation assay, H460
A549 cells = assay: CCK-8 antiproliferation assay, A549; details: for Inhibitory efficacy: A549 cells
PC-9 cells = assay: CCK-8 antiproliferation assay, PC-9; details: Homo sapiens, PC-9, 48 h, read-out: IC50 (μM) PC-9
Description: The compounds were dissolved in DMSO to make a 20 μM stock solution and diluted to the concentration of working solutions with complete growth medium before administration.
Cells were seeded in 96-well plates: 3,000–5,000 cells/well in 100 ul. One day after seeding, the test compounds at concentration between 1.0 and 16.0 μ M or 0.1% DMSO (as control) were added to cells in triplicate. 48 h later, CCK-8 was added and incubated the plate for 1–4 h in the incubator. The absorbance at 450 nm were measured using a microplate reader (Bio-Tek).

H1975 cells = assay: CCK-8 antiproliferation assay, H1975

IC50 (wild-type EGFR; IC50 (μM) EGFR, ELISA, 3 μmol/L ATP): 0.09 µM
inhibition at 100 fM (wild-type EGFR; concentration 0.0001 nM (reference for normalisation), one value per replicate column): 0%
Inhibition (wild-type EGFR; concentration 0.03 nM, one value per replicate column, 3e-05 µM): 3.563 and 0.1327
Inhibition (wild-type EGFR; concentration 0.3 nM, one value per replicate column, 0.0003 µM): 14.0143 and 0.8626
inhibition at 0.003 µM (wild-type EGFR; concentration 3 nM, one value per replicate column): 33.2%
Inhibition (wild-type EGFR; concentration 3 nM, one value per replicate column, 0.003 µM): 30.0597
inhibition at 0.03 µM (wild-type EGFR; concentration 30 nM, one value per replicate column): 44.4%
Inhibition (wild-type EGFR; concentration 30 nM, one value per replicate column, 0.03 µM): 47.6443
inhibition at 0.3 µM (wild-type EGFR; concentration 300 nM, one value per replicate column): 59.3%
Inhibition (wild-type EGFR; concentration 300 nM, one value per replicate column, 0.3 µM): 58.7259
inhibition at 3 µM (wild-type EGFR; concentration 3000 nM, one value per replicate column): 68.1%
Inhibition (wild-type EGFR; concentration 3000 nM, one value per replicate column, 3 µM): 67.4851
inhibition at 30 µM (wild-type EGFR; concentration 30000 nM, one value per replicate column): 86.9%
Inhibition (wild-type EGFR; concentration 30000 nM, one value per replicate column, 30 µM): 93.1652
A450 (wild-type EGFR; concentration 0.0001 nM): 1.566 and 1.805
A450 (wild-type EGFR; concentration 0.03 nM): 1.521 and 1.803
A450 (wild-type EGFR; concentration 0.3 nM): 1.389 and 1.792
A450 (wild-type EGFR; concentration 3 nM): 1.147 and 1.352
A450 (wild-type EGFR; concentration 30 nM): 1.005 and 1.087
A450 (wild-type EGFR; concentration 300 nM): 0.817 and 0.92
A450 (wild-type EGFR; concentration 3000 nM): 0.706 and 0.788
A450 (wild-type EGFR; concentration 30000 nM): 0.469 and 0.401
IC50 (H460 cells; Homo sapiens, NCI-H460, 48 h, read-out: IC50 (μM) H460, CCK-8, 48 h, average ± SD of three independent experiments): > 100 µM
IC50 (A549 cells; Homo sapiens, A549, 48 h, read-out: IC50 (μM) A549, CCK-8, 48 h, average ± SD of three independent experiments): > 100 µM
IC50 (PC-9 cells): > 100 µM
IC50 (H1975 cells; Homo sapiens, NCI-H1975, 48 h, read-out: IC50 (μM) H1975, CCK-8, 48 h, average ± SD of three independent experiments): > 100 µM
SMILES: COCCOc1cc2ncnc(Nc3cccc(-c4cn(-c5ccccc5)nn4)c3)c2cc1OCCOC [e15, [6,7-Bis-(2-methoxy-ethoxy)-quinazolin-4-yl]-[3-(1-phenyl-1H-[1,2,3]triazol-4-yl)-phenyl]-amine]
Tumor weight (PC-9 xenograft): 0.04 g and 0.03 g and 0.02 g and 0.01 g
p-AKT/AKT ([1]; band density ratio): 0.08408
p-AKT/AKT relative to DMSO ([1]; ratio normalised to DMSO): 0.08452
p-AKT/AKT ([2]; band density ratio): 0.03365
p-AKT/AKT relative to DMSO ([2]; ratio normalised to DMSO = 1): 0.03231
p-EGFR/EGFR ([3]; band density ratio): 0.02304
p-EGFR/EGFR relative to DMSO ([3]; ratio normalised to DMSO): 0.02768
p-EGFR/EGFR ([4]; band density ratio): 0.2353
p-EGFR/EGFR relative to DMSO ([4]; ratio normalised to DMSO = 1): 0.2103
Inhibitory efficacy (H460 cells; H460 cells, 2uM, given as fraction, Repeat 1-3): 0.04615 and 0.05031
inhibition at 2 µM (H460 cells; Homo sapiens, NCI-H460, read-out: Inhibitory efficacy, H460 cells, 2uM, given as fraction, Repeat 1-3): 5.86%
Inhibitory efficacy (A549 cells; 1uM, given as fraction, Repeat 1-3): 0.1367 and 0.1269
Inhibitory efficacy (A549 cells; 2uM, given as fraction, Repeat 1-3): 0.193 and 0.2629
Inhibitory efficacy (A549 cells; 4uM, given as fraction, Repeat 1-3): 0.2103 and 0.2621
Inhibitory efficacy (A549 cells; 8uM, given as fraction, Repeat 1-3): 0.2141 and 0.1622
Inhibitory efficacy (A549 cells; 16uM, given as fraction, Repeat 1-3): 0.2043 and 0.1059
inhibition at 1 µM (A549 cells; Homo sapiens, A549, read-out: Inhibitory efficacy, A549 cells, 1uM, given as fraction, Repeat 1-3): 11.7%
inhibition at 2 µM (A549 cells; Homo sapiens, A549, read-out: Inhibitory efficacy, A549 cells, 2uM, given as fraction, Repeat 1-3): 15.2%
inhibition at 4 µM (A549 cells; Homo sapiens, A549, read-out: Inhibitory efficacy, A549 cells, 4uM, given as fraction, Repeat 1-3): 18.5%
inhibition at 8 µM (A549 cells; Homo sapiens, A549, read-out: Inhibitory efficacy, A549 cells, 8uM, given as fraction, Repeat 1-3): 14.6%
inhibition at 16 µM (A549 cells; Homo sapiens, A549, read-out: Inhibitory efficacy, A549 cells, 16uM, given as fraction, Repeat 1-3): 11.9%
Inhibitory efficacy (H1975 cells; H1975 cells, 8uM, given as fraction, Repeat 1-3): 0.07522 and 0.1057
inhibition at 8 µM (H1975 cells; Homo sapiens, NCI-H1975, read-out: Inhibitory efficacy, H1975 cells, 8uM, given as fraction, Repeat 1-3): 6.27%
